# Laboratory results as given in ChEMBL document CHEMBL1201862, “PubChem BioAssay data set” (2004).
# Activity calls are given as the source filed them.
# Columns and labels:
# [1] = Luminescent dose response cell-based high throughput screening assay for inhibitors of the Janus kinase 2 mutant JAK2V617F. [Related pubchem assays: 1446 (Primary screen.), 1521 (Confirmation assay.), 1486 (Counter screen.)]; type: functional
# [2] = Luminescence Cell-Based Dose Confirmation HTS to Identify Inhibitors of Polyadenylation.; type: functional
# [3] = microbe, parasite or virus in culture; type: functional; settings: Mycobacterium tuberculosis
# [4] = NIH-3T3 fibroblast cytotoxicity, dose response, cytotoxicity control, cell-based, fluorescence, Alamar Blue, secondary assay (AID 2327); type: functional;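 further: NIH-3T3 mouse fibroblasts cultured with fluconazole at 8 µg/mL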
# [5] = tested on: Vero; assay: cells; type: functional, cell-based; settings: Chlorocebus sabaeus
# [6] = non-specific 3'UTR reporter inhibition in Clone20-Shn3RL – cell-based, Renilla luciferase, cherry-picked, counter-screen for Shn3 inhibitor project, dose response (AID 624133); type: functional
# [7] = luciferase reporter signal reduction – luminescence, H4-C neuroglioblastoma cells, dose response (AID 2458); type: functional, cell-based;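 further: H4 neuroglioblastoma cells stably carrying a luciferase reporter gene fusion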
# [8] = Luminescence Cell-Based Dose Response HTS to Identify Inhibitors of 5'UTR Stem-Loop Driven Prion Protein mRNA Translation in H4 Neuroglioblastoma Cells. [Related pubchem assays: 1827 (Project Summary), 1813 (Primary HTS)]; type: functional
# [9] = tested on: Vero; assay: mammalian cell viability reduction – secondary assay, cytotoxicity control for West Nile virus antiviral project, dose response (AID 1650); type: functional; settings: Chlorocebus sabaeus
# [10] = reduction of Shn3 3'UTR-driven luciferase in osteoblasts – cell-based, Clone20 osteoblasts, firefly luciferase, cherry-picked, dose response (AID 624132); type: functional;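 further: firefly luciferase luminescence from reporter carrying the Shn3 3'UTR in osteoblasts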
# [11] = alpha-synuclein stem-loop translation blockers – luminescence, H4 neuroglioblastoma cells, dose confirmation, confirmation (AID 2454); type: functional, cell-based;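 further: H4 neuroglioblastoma cells carrying an alpha-synuclein 5'UTR luciferase reporter; potency for inhibition of the luciferase signal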
# [12] = tested on: Jurkat; assay: blockers of NF-kB activation in T cells – Jurkat, luciferase reporter, luminescence, B- and T-cell, dose response (AID 489004); type: functional, cell-based; settings: Homo sapiens;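 further: NF-kB luciferase reporter Jurkat cells stimulated with PMA plus ionomycin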
# [13] = HEK-293T viability loss, compound-treated – cell-based, uHTS hits, cytotoxicity control for B/T-cell NF-kB inhibitor project, dose response (AID 489019); type: functional;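 further: IC50 reflects cytotoxicity as loss of cell viability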
# [14] = target: Dual specificity tyrosine-phosphorylation-regulated kinase 1A (Rattus norvegicus, UniProt Q63470); type: biochemical, Homo sapiens
# [15] = fluconazole-exposed Candida albicans growth modulators – fluorescence, retest, confirmation (AID 2467); type: functional, cell-based
# [16] = alpha-synuclein stem-loop luciferase translation blockers – H4 neuroglioma cells, luminescence, confirmation (AID 1988); type: functional, cell-based
# [17] = target: Cyclin-dependent kinase 5/CDK5 activator 1 (Homo sapiens, UniProt Q00535); assay: blockade of human CDK5 activity – biochemical, cherry-picked samples, set 2, dose response (AID 504545)
# Chain of Cyclin-dependent kinase 5/CDK5 activator 1 (Q00535 whole entry): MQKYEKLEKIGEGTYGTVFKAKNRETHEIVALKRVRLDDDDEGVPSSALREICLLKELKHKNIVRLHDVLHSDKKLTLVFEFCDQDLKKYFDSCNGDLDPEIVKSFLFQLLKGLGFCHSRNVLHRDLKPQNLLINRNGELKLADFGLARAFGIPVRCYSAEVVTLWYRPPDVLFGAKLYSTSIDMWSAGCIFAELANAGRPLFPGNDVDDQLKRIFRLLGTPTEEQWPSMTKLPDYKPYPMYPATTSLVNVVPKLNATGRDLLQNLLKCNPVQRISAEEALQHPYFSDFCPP
# Chain of Cyclin-dependent kinase 5/CDK5 activator 1 (Q15078 whole entry, further chain): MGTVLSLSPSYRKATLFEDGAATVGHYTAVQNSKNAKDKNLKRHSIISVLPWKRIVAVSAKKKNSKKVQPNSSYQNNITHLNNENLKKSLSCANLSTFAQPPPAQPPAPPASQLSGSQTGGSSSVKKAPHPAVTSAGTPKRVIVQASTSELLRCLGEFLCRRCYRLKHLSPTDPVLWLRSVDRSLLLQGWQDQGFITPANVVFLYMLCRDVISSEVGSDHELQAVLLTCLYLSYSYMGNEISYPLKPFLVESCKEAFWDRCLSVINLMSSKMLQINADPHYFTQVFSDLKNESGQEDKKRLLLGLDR
# [18] = cells; type: functional, cell-based
# [19] = target: T1, Replicative DNA helicase DnaB (Mycobacterium tuberculosis, UniProt P9WMR3); assay: DnaB intein splicing inhibitors, dose response, biochemical, cell-free fluorescence (AID 449749); type: functional
# T1 sequence (P9WMR3 whole entry): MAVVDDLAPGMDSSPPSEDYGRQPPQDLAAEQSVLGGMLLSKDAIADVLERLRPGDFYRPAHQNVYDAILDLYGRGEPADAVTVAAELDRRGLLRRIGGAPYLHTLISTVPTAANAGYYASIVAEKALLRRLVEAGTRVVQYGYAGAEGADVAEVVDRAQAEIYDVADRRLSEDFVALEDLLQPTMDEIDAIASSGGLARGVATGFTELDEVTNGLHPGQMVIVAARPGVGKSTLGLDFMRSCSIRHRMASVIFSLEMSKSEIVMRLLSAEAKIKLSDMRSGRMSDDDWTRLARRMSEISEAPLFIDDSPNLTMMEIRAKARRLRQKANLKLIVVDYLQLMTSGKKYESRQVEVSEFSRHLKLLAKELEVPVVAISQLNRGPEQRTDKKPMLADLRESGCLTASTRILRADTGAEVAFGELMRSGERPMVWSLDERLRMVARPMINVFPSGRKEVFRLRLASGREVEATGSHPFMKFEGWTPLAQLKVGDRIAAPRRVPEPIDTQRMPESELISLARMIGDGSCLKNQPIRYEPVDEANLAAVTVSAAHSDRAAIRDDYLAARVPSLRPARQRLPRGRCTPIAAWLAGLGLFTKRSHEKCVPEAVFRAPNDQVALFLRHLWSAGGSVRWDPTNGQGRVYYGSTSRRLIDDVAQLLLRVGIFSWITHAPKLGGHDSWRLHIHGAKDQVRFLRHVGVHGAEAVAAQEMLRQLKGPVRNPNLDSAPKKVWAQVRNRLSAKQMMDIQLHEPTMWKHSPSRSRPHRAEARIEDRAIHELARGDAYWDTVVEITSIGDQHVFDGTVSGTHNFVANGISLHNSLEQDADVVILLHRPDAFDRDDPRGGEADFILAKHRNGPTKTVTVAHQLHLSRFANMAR
# [20] = target: T2, Protein RecA (Mycobacterium tuberculosis, UniProt P9WHJ3); assay: Fluorescence Cell-Free Homogeneous Dose Retest to Identify Inhibitors of RecA-Intein Splicing Activity. [Related pubchem assays (depositor defined):AID2097, AID2223, AID489010, AID492950]; type: functional
# T2 sequence (P9WHJ3 whole entry): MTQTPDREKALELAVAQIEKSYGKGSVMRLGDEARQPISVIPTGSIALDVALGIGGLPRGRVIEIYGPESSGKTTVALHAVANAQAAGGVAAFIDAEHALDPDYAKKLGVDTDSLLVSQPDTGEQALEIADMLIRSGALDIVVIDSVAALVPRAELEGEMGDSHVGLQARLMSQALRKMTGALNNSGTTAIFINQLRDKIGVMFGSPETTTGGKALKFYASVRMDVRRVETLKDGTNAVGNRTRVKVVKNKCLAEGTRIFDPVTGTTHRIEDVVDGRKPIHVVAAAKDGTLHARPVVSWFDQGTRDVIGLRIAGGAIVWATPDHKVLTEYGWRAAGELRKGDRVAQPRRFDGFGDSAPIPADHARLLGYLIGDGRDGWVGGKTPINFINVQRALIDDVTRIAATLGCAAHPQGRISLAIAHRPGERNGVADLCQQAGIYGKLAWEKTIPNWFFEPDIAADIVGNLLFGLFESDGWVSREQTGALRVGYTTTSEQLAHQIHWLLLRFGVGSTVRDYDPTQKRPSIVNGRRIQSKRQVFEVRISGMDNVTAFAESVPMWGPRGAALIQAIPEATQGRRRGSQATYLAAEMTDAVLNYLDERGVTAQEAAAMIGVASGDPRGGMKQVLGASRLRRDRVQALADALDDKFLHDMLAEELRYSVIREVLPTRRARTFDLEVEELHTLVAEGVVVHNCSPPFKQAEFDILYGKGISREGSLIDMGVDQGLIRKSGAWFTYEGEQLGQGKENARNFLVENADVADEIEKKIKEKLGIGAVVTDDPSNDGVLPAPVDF
# [21] = target: T3, Caspase-3 (Homo sapiens, UniProt P42574); assay: Dose-response confirmation of uHTS inhibitor hits of Sentrin-Specific Protease 8 in a Caspase-3 Fluorescence assay.; type: functional
# T3 sequence (P42574 whole entry): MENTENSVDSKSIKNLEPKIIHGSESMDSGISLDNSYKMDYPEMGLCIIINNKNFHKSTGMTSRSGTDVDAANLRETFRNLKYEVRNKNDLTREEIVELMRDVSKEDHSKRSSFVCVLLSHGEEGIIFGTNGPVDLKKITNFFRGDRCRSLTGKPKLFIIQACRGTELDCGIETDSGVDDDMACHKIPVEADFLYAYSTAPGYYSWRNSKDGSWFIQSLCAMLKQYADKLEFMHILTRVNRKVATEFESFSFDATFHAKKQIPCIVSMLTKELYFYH
# [22] = target: Peroxisome proliferator-activated receptor gamma/Nuclear receptor corepressor 2 (Homo sapiens, UniProt P37231+Q9Y618); assay: Counterscreen for NR2E3 inverse agonists: TR-FRET-based biochemical high throughput dose response assay to identify inverse agonists of the interaction between peroxisome proliferator-activated receptor gamma (PPARg) and nuclear receptor co-repressor 2 (NCOR2).; type: functional
# Chain of Peroxisome proliferator-activated receptor gamma/Nuclear receptor corepressor 2 (P37231 whole entry): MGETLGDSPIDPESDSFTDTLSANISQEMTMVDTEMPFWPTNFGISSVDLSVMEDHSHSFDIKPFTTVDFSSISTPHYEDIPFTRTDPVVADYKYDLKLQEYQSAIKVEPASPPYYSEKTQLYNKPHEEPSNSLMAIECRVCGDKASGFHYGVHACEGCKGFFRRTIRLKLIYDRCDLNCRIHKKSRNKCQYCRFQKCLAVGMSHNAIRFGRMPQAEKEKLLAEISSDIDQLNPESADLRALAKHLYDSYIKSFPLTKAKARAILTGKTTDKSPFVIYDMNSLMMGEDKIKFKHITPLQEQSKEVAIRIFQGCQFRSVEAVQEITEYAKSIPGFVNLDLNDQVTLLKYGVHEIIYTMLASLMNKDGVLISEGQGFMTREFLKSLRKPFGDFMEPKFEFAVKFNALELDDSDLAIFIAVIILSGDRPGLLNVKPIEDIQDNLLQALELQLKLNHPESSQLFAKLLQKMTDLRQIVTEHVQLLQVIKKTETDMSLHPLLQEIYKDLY
# Chain of Peroxisome proliferator-activated receptor gamma/Nuclear receptor corepressor 2 (Q9Y618 whole entry): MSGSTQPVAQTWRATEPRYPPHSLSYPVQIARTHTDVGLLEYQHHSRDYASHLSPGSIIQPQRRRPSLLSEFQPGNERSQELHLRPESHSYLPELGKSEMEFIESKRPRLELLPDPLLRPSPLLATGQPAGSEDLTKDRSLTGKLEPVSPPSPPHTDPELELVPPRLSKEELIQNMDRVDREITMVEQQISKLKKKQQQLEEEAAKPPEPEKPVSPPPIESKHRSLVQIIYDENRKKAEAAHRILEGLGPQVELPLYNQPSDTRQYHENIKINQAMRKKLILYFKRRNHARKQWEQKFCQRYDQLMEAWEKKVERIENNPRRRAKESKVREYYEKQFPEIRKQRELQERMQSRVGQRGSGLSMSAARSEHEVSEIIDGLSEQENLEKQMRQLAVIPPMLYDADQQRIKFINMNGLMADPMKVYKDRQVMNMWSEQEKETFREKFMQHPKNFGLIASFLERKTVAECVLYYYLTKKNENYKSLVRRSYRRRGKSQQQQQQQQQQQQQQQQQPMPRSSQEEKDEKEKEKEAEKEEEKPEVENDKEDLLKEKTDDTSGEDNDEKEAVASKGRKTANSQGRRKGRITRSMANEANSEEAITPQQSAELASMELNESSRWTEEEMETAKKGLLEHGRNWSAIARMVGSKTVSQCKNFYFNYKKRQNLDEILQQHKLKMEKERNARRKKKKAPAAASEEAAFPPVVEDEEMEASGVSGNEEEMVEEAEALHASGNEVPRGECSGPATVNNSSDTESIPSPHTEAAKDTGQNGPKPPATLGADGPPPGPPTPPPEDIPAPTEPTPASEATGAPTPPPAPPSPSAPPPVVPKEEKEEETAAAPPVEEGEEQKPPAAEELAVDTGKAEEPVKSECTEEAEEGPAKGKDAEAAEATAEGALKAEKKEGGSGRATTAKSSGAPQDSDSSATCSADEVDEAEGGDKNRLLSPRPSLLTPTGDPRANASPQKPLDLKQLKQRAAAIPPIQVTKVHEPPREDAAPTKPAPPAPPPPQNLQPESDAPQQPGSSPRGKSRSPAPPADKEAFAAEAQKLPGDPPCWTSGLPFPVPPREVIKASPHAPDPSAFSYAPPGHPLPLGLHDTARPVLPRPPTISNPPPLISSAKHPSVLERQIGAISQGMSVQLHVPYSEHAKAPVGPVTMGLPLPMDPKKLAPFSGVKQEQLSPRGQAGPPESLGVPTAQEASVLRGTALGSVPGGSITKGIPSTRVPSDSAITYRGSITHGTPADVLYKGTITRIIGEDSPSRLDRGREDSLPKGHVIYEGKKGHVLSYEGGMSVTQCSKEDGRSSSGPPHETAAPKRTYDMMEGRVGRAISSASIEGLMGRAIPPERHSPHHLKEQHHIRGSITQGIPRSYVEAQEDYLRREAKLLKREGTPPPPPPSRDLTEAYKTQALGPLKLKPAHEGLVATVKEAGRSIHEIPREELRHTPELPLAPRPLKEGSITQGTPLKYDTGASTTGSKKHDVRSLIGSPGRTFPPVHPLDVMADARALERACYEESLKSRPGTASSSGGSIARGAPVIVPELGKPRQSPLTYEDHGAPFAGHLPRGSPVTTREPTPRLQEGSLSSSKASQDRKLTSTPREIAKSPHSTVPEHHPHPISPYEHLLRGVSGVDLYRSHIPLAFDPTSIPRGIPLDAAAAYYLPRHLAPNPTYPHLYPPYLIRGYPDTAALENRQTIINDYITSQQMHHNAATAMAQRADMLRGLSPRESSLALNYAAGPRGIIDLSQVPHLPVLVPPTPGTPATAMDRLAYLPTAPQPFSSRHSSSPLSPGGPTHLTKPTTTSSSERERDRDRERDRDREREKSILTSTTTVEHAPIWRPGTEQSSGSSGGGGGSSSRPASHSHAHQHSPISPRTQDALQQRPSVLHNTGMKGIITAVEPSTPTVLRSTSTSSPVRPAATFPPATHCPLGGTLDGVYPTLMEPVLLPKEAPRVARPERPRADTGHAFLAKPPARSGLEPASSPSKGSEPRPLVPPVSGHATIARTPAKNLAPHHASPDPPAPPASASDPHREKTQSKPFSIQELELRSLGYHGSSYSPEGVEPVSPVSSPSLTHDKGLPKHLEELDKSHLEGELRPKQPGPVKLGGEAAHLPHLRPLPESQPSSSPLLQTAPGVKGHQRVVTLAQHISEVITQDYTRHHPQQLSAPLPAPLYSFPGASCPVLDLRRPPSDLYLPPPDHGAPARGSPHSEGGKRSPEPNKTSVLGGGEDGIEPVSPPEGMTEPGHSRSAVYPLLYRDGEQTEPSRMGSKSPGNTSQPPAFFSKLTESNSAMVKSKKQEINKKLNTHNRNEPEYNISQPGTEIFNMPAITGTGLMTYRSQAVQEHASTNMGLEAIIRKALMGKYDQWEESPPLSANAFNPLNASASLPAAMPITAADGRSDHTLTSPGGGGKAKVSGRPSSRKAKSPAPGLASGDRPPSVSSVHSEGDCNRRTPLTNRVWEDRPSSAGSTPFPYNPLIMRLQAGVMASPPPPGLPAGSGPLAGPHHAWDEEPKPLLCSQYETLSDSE
# [23] = target: T4, Sentrin-specific protease 8 (Homo sapiens, UniProt Q96LD8); type: functional
# T4 sequence (Q96LD8 whole entry): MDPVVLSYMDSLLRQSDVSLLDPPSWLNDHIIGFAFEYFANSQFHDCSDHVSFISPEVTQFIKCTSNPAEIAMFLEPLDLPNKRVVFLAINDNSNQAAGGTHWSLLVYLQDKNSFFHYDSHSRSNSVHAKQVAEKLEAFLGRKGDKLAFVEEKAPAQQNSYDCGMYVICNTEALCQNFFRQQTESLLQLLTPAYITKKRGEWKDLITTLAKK
# [24] = tested on: H4; assay: Luminescence Cell-Based Dose Response HTS to Identify Activators of 5'UTR Stem-Loop Driven Prion Protein mRNA Translation in H4 Neuroglioblastoma Cells. [Related pubchem assays: 1829 (Project Summary), 1814 (Primary HTS)]; type: functional; settings: Homo sapiens
# [25] = target: Nonstructural protein 1 (Influenza A virus, UniProt Q194T2); type: functional, Influenza A virus (A/California/07/2009(H1N1))
# Chain of Nonstructural protein 1 (Q194T2 whole entry): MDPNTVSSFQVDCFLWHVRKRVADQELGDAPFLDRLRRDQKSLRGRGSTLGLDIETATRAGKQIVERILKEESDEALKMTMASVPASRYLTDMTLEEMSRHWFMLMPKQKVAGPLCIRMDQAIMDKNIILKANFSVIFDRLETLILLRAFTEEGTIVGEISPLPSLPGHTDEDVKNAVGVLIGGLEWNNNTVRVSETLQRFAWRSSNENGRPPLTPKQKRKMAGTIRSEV
# [26] = NIH3T3 cell viability loss – ATP luminescence, mouse fibroblasts, counter-screen, dose response (AID 2010); type: functional, cell-based;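 further: cells exposed to compound for about 90 hours before reading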
# [27] = target: Photoreceptor-specific nuclear receptor (Homo sapiens, UniProt Q9Y5X4); assay: ligands suppressing NR2E3 nuclear receptor activity – biochemical, TR-FRET, dose response (AID 463256); type: functional
# Chain of Photoreceptor-specific nuclear receptor (Q9Y5X4 whole entry): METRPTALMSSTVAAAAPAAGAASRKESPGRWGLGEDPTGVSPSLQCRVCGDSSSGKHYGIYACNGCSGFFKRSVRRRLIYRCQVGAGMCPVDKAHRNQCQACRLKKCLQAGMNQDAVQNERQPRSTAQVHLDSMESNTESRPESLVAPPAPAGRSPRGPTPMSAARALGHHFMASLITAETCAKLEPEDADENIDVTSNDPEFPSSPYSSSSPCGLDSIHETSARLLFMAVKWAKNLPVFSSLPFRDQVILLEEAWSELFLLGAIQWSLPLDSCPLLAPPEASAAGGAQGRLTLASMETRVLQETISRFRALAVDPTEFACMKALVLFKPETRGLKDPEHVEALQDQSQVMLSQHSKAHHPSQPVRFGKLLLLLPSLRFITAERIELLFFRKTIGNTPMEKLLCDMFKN
# [28] = target: T4, Sentrin-specific protease 8; type: functional; remark: listed apart in the source
# [29] = Trypanosoma cruzi growth suppression in host cells – NIH3T3 host cells, beta-gal luminescence, confirmation (AID 2044); type: functional, cell-based;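 further: intracellular parasites grown in NIH/3T3 mouse fibroblasts as host cells; luminescent beta-galactosidase reporter signal from transgenic T. cruzi replicating inside host cells; inhibitors lower the luminescence signal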
# [30] = Luminescence Cell-Based Dose Response HTS to Identify Activators of Luciferase Translation or Activity in H4 […] Cells. [Related pubchem assays: 1829 (Project Summary), 1814 (Primary HTS)]; type: functional
# [31] = Luminescence Cell-Based Dose Confirmation HTS to Identify Activators of 5'UTR Stem-Loop Driven Alpha-Synuclein mRNA Translation in H4 Neuroglioblastoma Cells. [Related pubchem assays: 1829 (Project Summary), 1814 (Primary HTS)]; type: functional
structure (smiles),measurement,setting,value
CC(C)(C)OC(=O)N[C@@H](Cc1ccccc1)c1nnc(S(=O)(=O)Cc2cccc(F)c2)o1,IC50,[1],788 nM (active)
O=C(NCCC1=CCCCC1)c1c(O)nc2ccccn2c1=O,EC50,[2],> 120000 nM (not active)
OCCCNc1cc(-c2ccnc(Nc3cccc(Cl)c3)n2)ccn1,CC50,[3],< 80 nM (active)
same,EC50,[4],269 nM (inconclusive)
same,IC50,[5],> 25000 nM (active)
same,AC50,[6],375 nM (active)
same,EC50,[7],74 nM (active)
same,EC50,[8],< 100 nM (active)
same,CC50,[9],50 nM (active)
same,AC50,[10],< 260 nM (active)
same,EC50,[11],182 nM (active)
same,IC50,[12],< 160 nM (active)
same,IC50,[13],35300 nM (inactive)
same,AC50,[14],13 nM (active)
same,EC50,[15],666 nM (active)
same,EC50,[16],< 100 nM (active)
same,AC50,[17],377 nM (active)
same,EC50,[18],76 nM (active)
Cc1ccc(S(=O)(=O)NC(=O)Nc2ccc(N(C)C)cc2)cc1,AC50,[19],> 380000 nM (inactive)
same,EC50,[20],5180 nM (active)
same,IC50,[21],18100 nM (active)
same,IC50,[22],503 nM (active)
same,IC50,[23],7020 nM (active)
same,EC50,[24],1970 nM (active)
same,IC50,[25],44100 nM (active)
same,EC50,[26],> 60000 nM (not active)
same,IC50,[27],748 nM (active)
same,IC50,[28],7830 nM (active)
same,EC50,[29],1390 nM (active)
same,EC50,[30],13000 nM (active)
same,EC50,[31],7500 nM (active)
